In one assay the test system is cytochrome c. It is filed as cell-based, mouse. The note with it: for cyt c (composite Z-score): normalized score vs mock-treated (DMSO) wells.
The subject of another assay is reactive oxygen species. It is filed as cell-based, mouse. The following applies: for ROS (composite Z-score): normalized score vs mock-treated (DMSO) wells.
A further assay relates to OXPHOS gene expression. It is filed as cell-based, mouse. The following applies: for GE-HTS (composite Z-score): normalized score vs mock-treated (DMSO) wells.
In a further assay the test system is mtOXPHOS transcripts. It is filed as cell-based, mouse. The note with it: for mitoOX (composite Z-score): normalized score vs mock-treated (DMSO) wells.
A further assay relates to nuOXPHOS transcripts. It is filed as cell-based, mouse. The following applies: for nucOX (composite Z-score): normalized score vs mock-treated (DMSO) wells.
The subject of assay [1] is cellular dehydrogenase activity. The note with it: for MTT (composite Z-score): normalized score vs mock-treated (DMSO) wells.
The subject of a further assay is C2C12 myotubes. The note with it: for Viability (composite Z-score): normalized score vs mock-treated (DMSO) wells.
Assay [2] has as its system mitochondrial membrane potential. It is filed as cell-based, mouse. The following applies: for ΔΨm (composite Z-score): normalized score vs mock-treated (DMSO) wells.
Where [3] appears, read: normalized composite Z-score vs mock-treated (DMSO) wells, Conc 20 μM.
Setting [4] is: composite Z-score vs DMSO, Conc 20 μM.
[5] abbreviates: composite Z-score vs mock-treated (DMSO) wells, Conc 20 μM.
Setting [6] is: Table 4, C2C12 myotubes, 48 h, composite Z-score.
Where [7] appears, read: Table 4, C2C12 myotubes, 48 h, JC-1, composite Z-score.

Like-named read-outs stand apart in the source and are kept apart here.

Chain of cytochrome c (P62897 whole entry): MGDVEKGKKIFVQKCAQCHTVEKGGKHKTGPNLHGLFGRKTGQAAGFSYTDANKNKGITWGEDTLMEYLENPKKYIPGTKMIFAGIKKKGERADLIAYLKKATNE

For the compound `NCCC(=O)c1ccccc1N` [kynuramine], in the assay with cytochrome c (setting [3]), the cyt c is 1.161. For the same compound, the ROS with reactive oxygen species (setting [3]) turned out to be 1.180. In the assay with OXPHOS gene expression (setting [3]), the GE-HTS was 0.070. In the assay with mtOXPHOS transcripts (setting [3]), this compound registered a mitoOX of 0.045. This compound came in with a nucOX with nuOXPHOS transcripts (setting [3]) of 0.093. Besides, the MTT in assay [1] (setting [3]) is recorded as −1.264. In the assay with C2C12 myotubes (setting [3]), this compound registered a Viability of 0.319. For the same compound, the ΔΨm in assay [2] (setting [3]) was −0.127.
As for 3,7-epoxycaryophyllan-6-one, the cyt c in the assay with cytochrome c (setting [3]) was 0.131. The same compound yielded an ROS in the assay with reactive oxygen species (setting [3]) of 0.603. Moreover, the GE-HTS in the assay with OXPHOS gene expression (setting [3]) is −0.812. The same compound showed a mitoOX in the assay on mtOXPHOS transcripts (setting [3]) of −0.595. This compound also yielded a nucOX in the assay on nuOXPHOS transcripts (setting [3]) of −0.824. Also, the MTT in assay [1] (setting [3]) was −0.698. In the assay with C2C12 myotubes (setting [3]), this compound came in with a Viability of 0.433. For the same compound, the ΔΨm in assay [2] (setting [3]) was −1.003.
In the assay with cytochrome c, `OC(CCN1CCCCC1)(c1ccccc1)C1CC2C=CC1C2` (stereo not shown) [biperiden] came in with a cyt c of 0.053. The same compound came in with an ROS with reactive oxygen species of 2.725. Further, in the assay on OXPHOS gene expression, the GE-HTS is on record as −0.817. In addition, the mitoOX in the assay on mtOXPHOS transcripts is listed as −1.312. The compound further yielded a nucOX in the assay on nuOXPHOS transcripts of −0.496. For the same compound, the MTT in assay [1] was −0.886. This compound also registered a Viability in the assay on C2C12 myotubes of 0.740. In assay [2], this compound gave a ΔΨm of −0.517.
In the case of `CC(=O)Oc1ccccc1C(=O)Oc1ccccc1C(=O)O` [acetylsalicylsalicylic acid], the “cyt c (composite Z-score)” value in the assay on cytochrome c (Conc 13.32 μM) is reported as −0.200. In addition, in the assay on reactive oxygen species (Conc 13.32 μM), the “ROS (composite Z-score)” value is 0.399. Moreover, the “GE-HTS (composite Z-score)” value with OXPHOS gene expression (Conc 13.32 μM) is given as −0.301. Moreover, in the assay on mtOXPHOS transcripts (Conc 13.32 μM), the “mitoOX (composite Z-score)” value is listed as −0.389. For the same compound, in the assay with nuOXPHOS transcripts (Conc 13.32 μM), the “nucOX (composite Z-score)” value is recorded as −0.249. Further, the “MTT (composite Z-score)” value in assay [1] (Conc 13.32 μM) is on record as −1.621. In the assay on C2C12 myotubes (Conc 13.32 μM), the “Viability (composite Z-score)” value was −0.840. For the same compound, the “ΔΨm (composite Z-score)” value in assay [2] (Conc 13.32 μM) was −0.808.
As for `Cc1cc(O)c(C=O)c(O)c1C(=O)O` [haematommic acid], the cyt c in the assay on cytochrome c (setting [4]) is 0.631. The compound further displayed an ROS in the assay on reactive oxygen species (setting [4]) of −1.077. In addition, the GE-HTS with OXPHOS gene expression (setting [4]) was −0.410. In the assay with mtOXPHOS transcripts (setting [4]), this compound gave a mitoOX of −1.067. The nucOX in the assay with nuOXPHOS transcripts (setting [4]) is listed as −0.078. In assay [1] (setting [4]), this compound returned an MTT of −0.740. The Viability with C2C12 myotubes (setting [4]) was −0.412. Further, the ΔΨm in assay [2] (setting [4]) is given as 0.002.
`COc1cc(OC)c2c(c1Cl)O[C@@]1(C(=O)CC(=O)C[C@H]1C)C2=O` [griseofulvic acid, reference compound] had a cyt c in the assay on cytochrome c (setting [5]) of 0.724. For the same compound, the ROS with reactive oxygen species (setting [6]) and in the assay on reactive oxygen species (setting [5]) was −0.323 in each case. Also, the GE-HTS in the assay on OXPHOS gene expression (setting [5]) is given as −0.370. Besides, the mitoOX in the assay on mtOXPHOS transcripts (setting [5]) is −0.209. The compound also yielded a nucOX in the assay with nuOXPHOS transcripts (setting [5]) of −0.442. Besides, the MTT in assay [1] (setting [6]) and in assay [1] (setting [5]) was −0.469 in each case. Further, the Viability in the assay on C2C12 myotubes (setting [6]) and with C2C12 myotubes (setting [5]) was 0.176 in each case. For the same compound, the ΔΨm in assay [2] (setting [7]) and in assay [2] (setting [5]) was −0.666 in each case.
Take `O=C(/C=C/c1ccccc1)c1ccc(O[C@@H]2O[C@H](CO)[C@@H](O)[C@H](O)[C@H]2O)cc1O` [2′,4′-dihydroxychalcone 4′-glucoside]: the “cyt c (composite Z-score)” value in the assay on cytochrome c (Conc 20 μM) is listed as −0.225. In the assay with reactive oxygen species (Conc 20 μM), the “ROS (composite Z-score)” value stood at 1.144. Besides, in the assay on OXPHOS gene expression (Conc 20 μM), the “GE-HTS (composite Z-score)” value is reported as −0.189. Besides, the “mitoOX (composite Z-score)” value with mtOXPHOS transcripts (Conc 20 μM) turned out to be 0.004. For the same compound, in the assay on nuOXPHOS transcripts (Conc 20 μM), the “nucOX (composite Z-score)” value is reported as −0.247. Moreover, the “MTT (composite Z-score)” value in assay [1] (Conc 20 μM) was −1.358. Also, the “Viability (composite Z-score)” value in the assay with C2C12 myotubes (Conc 20 μM) is reported as 0.556. Moreover, the “ΔΨm (composite Z-score)” value in assay [2] (Conc 20 μM) is −0.532.
With “isoduartin methyl ether [reference compound]”, the “cyt c (composite Z-score)” value in the assay with cytochrome c (Conc 20 μM) came out at 0.882. In the assay with reactive oxygen species (Conc 20 μM), the “ROS (composite Z-score)” value turned out to be 0.599. For the same compound, the ROS with reactive oxygen species (setting [6]) is 0.599. The “GE-HTS (composite Z-score)” value in the assay on OXPHOS gene expression (Conc 20 μM) was −0.182. Also, the “mitoOX (composite Z-score)” value in the assay with mtOXPHOS transcripts (Conc 20 μM) is given as −0.434. For the same compound, in the assay with nuOXPHOS transcripts (Conc 20 μM), the “nucOX (composite Z-score)” value is −0.008. Moreover, in assay [1] (Conc 20 μM), the “MTT (composite Z-score)” value is given as −2.055. In assay [1] (setting [6]), this compound showed an MTT of −2.055. The “Viability (composite Z-score)” value in the assay with C2C12 myotubes (Conc 20 μM) is reported as −0.603. This compound gave a Viability in the assay with C2C12 myotubes (setting [6]) of −0.603. For the same compound, the “ΔΨm (composite Z-score)” value in assay [2] (Conc 20 μM) was −0.777. The ΔΨm in assay [2] (setting [7]) is reported as −0.777.
In the assay with cytochrome c (setting [3]), `COC1CC(C)C2OC2CC(C)C2CC(C)(C)C12` (stereo not shown) came in with a cyt c of 0.933. In the assay on reactive oxygen species (setting [3]), this compound showed an ROS of 0.120. In the assay with OXPHOS gene expression (setting [3]), this compound had a GE-HTS of −0.497. The same compound displayed a mitoOX in the assay on mtOXPHOS transcripts (setting [3]) of −0.439. The nucOX in the assay with nuOXPHOS transcripts (setting [3]) was −0.466. The same compound yielded an MTT in assay [1] (setting [3]) of −0.794. Moreover, in the assay with C2C12 myotubes (setting [3]), the Viability is listed as −1.011. This compound also yielded a ΔΨm in assay [2] (setting [3]) of −0.699.
As to `CC1(C)O[C@H]2CC(=O)OC[C@]23[C@H]2CC[C@@]4(C)[C@H](c5ccoc5)OC(=O)[C@H]5O[C@]54[C@]2(C)C(=O)C[C@@H]13` [limonin], in the assay with cytochrome c (setting [4]), the cyt c amounted to 0.042. Further, the ROS in the assay with reactive oxygen species (setting [4]) is reported as 1.165. The compound further showed a GE-HTS with OXPHOS gene expression (setting [4]) of −0.197. Further, the mitoOX with mtOXPHOS transcripts (setting [4]) was determined as 0.127. In addition, the nucOX in the assay with nuOXPHOS transcripts (setting [4]) is on record as −0.317. In assay [1] (setting [4]), this compound registered an MTT of −1.564. This compound also registered a Viability in the assay with C2C12 myotubes (setting [4]) of −0.818. The compound also registered a ΔΨm in assay [2] (setting [4]) of −0.668.

The record behind these values is patent US20090143279A1 (priority 2007, published 2009).
